Measured values published in patent publication US20200281208A1 (ISAGRO S.p.A., priority 2015, published 2020).
Like-named read-outs stand apart in the source and are kept apart here.

Key:
Assay type in all cases: in vivo
[1] = tested on: Pseudomonas syringae pv tomato; test: Biological evaluation of cupric salts of carboxylic acids on Pseudomonas syringae pv tomato, tomato plants in cold greenhouse (Example 10, comparative); conditions: 250 ppm a.i., survey 7 days after infection/treatment, 10 plants per plot
Excerpt: Biological Evaluation of Cupric Salts of Carboxylic Acids on Pseudomonas syringae pv tomato
A comparison was effected between the bactericidal activity of various cupric salts of carboxylic acids described in patent application US2009/136581 with that of crystalline foiin 1.
(§1) The day after application, the plants were infected with a suspension of bacterial cells previously cultivated in Nutrient Broth culture broth, at a bacterium-broth concentration of 1:4.
(§2) The inoculum, kept under stirring for 2 days, was sprayed on the plants in the morning, in guttation phase, with knapsack sprayers.
(§3) Visual surveys were effected 7 days after each infection/treatment, analyzing 10 plants per plot, analyzing the percentage of leaf surface affected.

[2] = tested on: Tomato plants; test: Phytotoxicity on treated tomato plants (Example 10, comparative); conditions: 250 ppm a.i.
Excerpt: as §3

[3] = tested on: Pseudomonas syringae pv tomato; conditions: survey 7 days after infection/treatment; for Leaf surface affected (%): tomato plants
Excerpt: Biological Evaluation of the […] of […] on Pseudomonas syringae pv tomato
In the above table, SC is an abbreviation of “concentrated aqueous suspension” and TQ of “as such”.
as §1, §2
Visual surveys were effected 7 days after each infection/treatment, analyzing 50 plants per plot, analyzing the percentage of plants infected and the percentage of leaf surface affected.

O=C(O)CCCC(=O)O.[Cu] [Copper glutarate]
Leaf surface affected (%) [1]: 69% | Phytotoxicity (%) [2]: 0%

O=C(O)CC(O)C(=O)O.[Cu] (centres unmarked) [Copper malate]
Leaf surface affected (%) [1]: 5% | Phytotoxicity (%) [2]: 20%

O=C(O)CCC(=O)O.[Cu] [Copper succinate]
Leaf surface affected (%) [1]: 50% | Phytotoxicity (%) [2]: 0%

O=C([O-])C(O)C(O)C(=O)[O-].[Cu+2] (centres unmarked) [Copper tartrate]
Leaf surface affected (%) [1]: 69% | Phytotoxicity (%) [2]: 0%

[Cu+2].[OH-].[OH-] [Cu(OH)2, copper hydroxide]
Quantity infected plants (%) ([3]; 6.25 g a.i./100 l): 37.5% | Quantity infected plants (%) ([3]; 12.5 g a.i./100 l): 35.7% | Quantity infected plants (%) ([3]; 25 g a.i./100 l, 500 l per hectare, 50 plants per plot): 31.0% | Leaf surface affected (%) ([3]; 6.25 g a.i./100 l): 3.4% | Leaf surface affected (%) ([3]; 12.5 g a.i./100 l): 4.9% | Leaf surface affected (%) ([3]; 25 g a.i./100 l, 500 l per hectare): 3.9%

O=C(O)c1ccccc1O [Salicylic acid]
Quantity infected plants (%) ([3]; 13.6 g a.i./100 l): 40.7% | Quantity infected plants (%) ([3]; 27.2 g a.i./100 l): 31.5% | Quantity infected plants (%) ([3]; 54.2 g a.i./100 l): 36.3% | Leaf surface affected (%) ([3]; 13.6 g a.i./100 l): 4.7% | Leaf surface affected (%) ([3]; 27.2 g a.i./100 l): 3.9% | Leaf surface affected (%) ([3]; 54.2 g a.i./100 l): 3.5%
